Consider 3 compounds from patent publication US7612076B2, “Piperazinyl-pyridine derivatives” (Hoffman-La Roche Inc., priority 2004, dated 2009).

The structures appear in SMILES notation. pKi: −log10 of the molar value.

As usually defined, the pKi is the negative decadic logarithm of the Ki, by convention in mol/L.

T1 sequence (Q9Y5N1 whole entry): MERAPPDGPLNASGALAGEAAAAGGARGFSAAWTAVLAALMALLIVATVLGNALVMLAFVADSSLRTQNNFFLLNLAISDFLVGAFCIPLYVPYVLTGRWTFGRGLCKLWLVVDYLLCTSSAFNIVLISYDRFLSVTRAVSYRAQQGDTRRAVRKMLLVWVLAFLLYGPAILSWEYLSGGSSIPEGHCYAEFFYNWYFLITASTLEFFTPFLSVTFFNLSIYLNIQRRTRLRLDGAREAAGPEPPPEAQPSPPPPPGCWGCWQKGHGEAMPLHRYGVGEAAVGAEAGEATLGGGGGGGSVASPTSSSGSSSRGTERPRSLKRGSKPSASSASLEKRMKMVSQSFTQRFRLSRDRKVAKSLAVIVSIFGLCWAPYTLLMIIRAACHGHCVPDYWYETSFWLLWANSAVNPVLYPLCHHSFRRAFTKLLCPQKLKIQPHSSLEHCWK

The assay concerns the target T1, histamine 3 receptor (H3R) (Homo sapiens, UniProt Q9Y5N1).
T1 construct: expressed in transfected cells; host or cells: CHO cells (HR3-CHO cell line), membrane preparation
The experiment in a line: Binding Assay with 3H-(R)α-Methylhistamine (competition binding, membrane of the human HR3-CHO cell line). The following applies: competition binding vs 3H(R)α-Methylhistamine (1 nM = Kd), 1 hour room temperature, Ki calculated from IC50 by Cheng-Prusoff. On the procedure: Binding Assay with ^3H—(R)α-Methylhistamine
Saturation binding experiments were performed using HR3-CHO membranes prepared as described in Takahashi, K, Tokita, S., Kotani, H. (2003) J. Pharmacol. Exp. Therapeutics 307, 213-218.
An appropriate amount of membrane (60 to 80 μg protein/well) was incubated with increasing concentrations of ^3H(R)α-Methylhistamine di-hydrochloride (0.10 to 10 nM). Non specific binding was determined using a 200 fold excess of cold (R)α-Methylhistamine dihydrobromide (500 nM final concentration). The incubation was carried out at room temperature (in deep-well plates shaking for three hours). The final volume in each well was 250 μl. The incubation was followed by rapid filtration on GF/B filters (pre-soaked with 100 μl of 0.5% PEI in Tris 50 mM shaking at 200 rpm for two hours). The filtration was made using a cell-harvester and the filter plates were then washed five times with ice cold washing buffer containing 0.5 M NaCl. After harvesting, the plates were dried at 55° C. for 60 min, then we added scintillation fluid (Microscint 40, 40 microl in each well) and the amount of radioactivity on the filter was determined in Packard top-counter after shaking the plates for two hours at 200 rpm at room temperature.
Binding Buffer: 50 mM Tris-HCl pH 7.4 and 5 mM MgCl2×6H2O pH 7.4. Washing Buffer: 50 mM Tris-HCl pH 7.4 and 5 mM MgCl2×6H2O and 0.5 M NaCl pH 7.4.
Indirect measurement of affinity of H3R inverse agonists: twelve increasing concentrations (ranging from 10 μM to 0.3 nM) of the selected compounds were always tested in competition binding experiments using membrane of the human HR3-CHO cell line. An appropriate amount of protein, e.g. approximately 500 cpm binding of RAMH at Kd, were incubated for 1 hour at room temperature in 250 μl final volume in 96-well plates in presence of ^3H(R)α-Methylhistamine (1 nM final concentration=Kd). […]
All compounds were tested at a single concentration in duplicates. […] Ki's were calculated from IC50 based on Cheng-Prusoff equation (Cheng, Y, Prusoff, W H (1973) Biochem Pharmacol 22, 3099-3108).
For `O=C(Nc1cc(N2CCN(C3CCCC3)CC2)ccn1)c1cccc(F)c1` [Example 48, N-[4-(4-cyclopentyl-piperazin-1-yl)-pyridin-2-yl]-3-fluoro-benzamide], the pKi was 7.12.
For `O=C(Nc1ccnc(N2CCN(C3CCCC3)CC2)c1)N1CCC(F)CC1` [Example 66, 4-fluoro-piperidine-1-carboxylic acid [2-(4-cyclopentyl-piperazin-1-yl)-pyridin-4-yl]-amide], the pKi is 7.31.
As for `O=C(Nc1ccnc(N2CCN(C3CCCC3)CC2)c1)C1CCCCC1` [Example 11, cyclohexanecarboxylic acid [2-(4-cyclopentyl-piperazin-1-yl)-pyridin-4-yl]-amide], the pKi was 8.07.
